Assay: xn = mol fraction of the nth substance listed

Cn1cc[n+](CCC[n+]2ccn(C)c2)c1.[Br-].[Br-] + O=C[C@H](O)[C@@H](O)[C@H](O)[C@H](O)CO + O
viscosity [mPa·s], 101 kPa
Conditions | 293.15 K | 298.15 K | 303.15 K | 308.15 K | 313.15 K
x1 = 0.0005066, x2 = 0.001798 | 1.061 | 0.945 | 0.846 | 0.764 | 0.696
x1 = 0.0005575, x2 = 0.001798 | 1.059 | 0.942 | 0.844 | 0.765 | 0.695
x1 = 0.0005912, x2 = 0 | 1.016 | 0.905 | 0.812 | 0.734 | 0.669
x1 = 0.0006805, x2 = 0 | 1.016 | 0.904 | 0.811 | 0.734 | 0.67
x1 = 0.0007464, x2 = 0.001797 | 1.065 | 0.947 | 0.848 | 0.768 | 0.698
x1 = 0.0007474, x2 = 0 | 1.019 | 0.908 | 0.816 | 0.739 | 0.673
x1 = 0.0009122, x2 = 0 | 1.025 | 0.913 | 0.82 | 0.74 | 0.675
x1 = 0.0009147, x2 = 0.001797 | 1.073 | 0.954 | 0.856 | 0.773 | 0.704
x1 = 0.001085, x2 = 0.001797 | 1.079 | 0.96 | 0.86 | 0.779 | 0.707
x1 = 0.001235, x2 = 0.001797 | 1.086 | 0.966 | 0.867 | 0.78 | 0.71
x1 = 0.00129, x2 = 0 | 1.043 | 0.927 | 0.832 | 0.754 | 0.686
x1 = 0.001332, x2 = 0.001796 | 1.083 | 0.963 | 0.863 | 0.782 | 0.712
x1 = 0.00144, x2 = 0 | 1.05 | 0.935 | 0.84 | 0.758 | 0.693
x1 = 0.001476, x2 = 0.001796 | 1.087 | 0.966 | 0.866 | 0.784 | 0.713
x1 = 0.001591, x2 = 0.001796 | 1.093 | 0.97 | 0.87 | 0.786 | 0.715
x1 = 0.001838, x2 = 0 | 1.066 | 0.948 | 0.85 | 0.768 | 0.7
x1 = 0.002094, x2 = 0 | 1.071 | 0.955 | 0.855 | 0.77 | 0.702
x1 = 0.002204, x2 = 0 | 1.071 | 0.955 | 0.857 | 0.774 | 0.705
x1 = 0.002491, x2 = 0 | 1.084 | 0.962 | 0.859 | 0.775 | 0.708

CCCC[P+](CCCC)(CCCC)CCCC.CS(=O)(=O)[O-] + O=S1(=O)CCCC1
101.33 kPa, x1 = 0.5
Conditions | viscosity [mPa·s]
303.15 K | 136
313.15 K | 84
323.15 K | 50
333.15 K | 34.6
343.25 K | 24.6
353.25 K | 18.7

CCCC[n+]1ccn(C)c1.N#C[N-]C#N + O=S(=O)([N-]S(=O)(=O)C(F)(F)F)C(F)(F)F.[Li+]
electrical conductivity [S/m], 101 kPa
Conditions | x1 = 0.8953 | x1 = 0.9103 | x1 = 0.942 | x1 = 0.9606 | x1 = 0.9799 | x1 = 1
288.15 K | – | 0.381 | 0.469 | 0.538 | 0.595 | 0.596
298.15 K | 0.519 | 0.613 | 0.743 | 0.848 | 0.919 | 0.925
333.15 K | 1.67 | 1.88 | 2.17 | 2.46 | 2.56 | 2.77

CCCC[n+]1ccn(C)c1.N#C[N-]C#N + O=S(=O)([O-])C(F)(F)F.[Li+]
101 kPa, x1 = 1
Conditions | electrical conductivity [S/m]
288.15 K | 0.596
298.15 K | 0.925
333.15 K | 2.77

CCCC[n+]1ccn(C)c1.N#C[N-]C#N + O=[N+]([O-])[O-].[Li+]
electrical conductivity [S/m], 101 kPa
Conditions | x1 = 0.7634 | x1 = 0.8104 | x1 = 0.859 | x1 = 0.9137 | x1 = 0.9799 | x1 = 1
288.15 K | – | 0.155 | 0.246 | 0.377 | 0.599 | 0.596
298.15 K | 0.193 | 0.272 | 0.417 | 0.612 | 0.924 | 0.925
333.15 K | 0.902 | 1.17 | 1.47 | 1.95 | 2.6 | 2.77

— the CheMixHub ionic liquid set
